Assay results: patent US11141462B2, “Method for the treatment or prevention of osteoarthritis” (Chondropeptix B.V., priority 2016, dated 2021)

Columns and labels:
Type in all cases: cell-based, human
[1] = tested on: Isolated chondrocytes from OA patients; assay: Treatment of isolated chondrocytes from OA patients, gene expression by qRT-PCR; details: 1 nM, 24 h; qRT-PCR normalized for 28S rRNA; n=6
Experimental: Isolated chondrocytes from OA patients (n=6) were treated with BMP-7 (1 nM) or the 12-mer peptide according to SEQ ID NO: 43 (1 nM) for 24 h. Pro-chondrogenic (FIG. 8A) and hypertrophic (FIGS. 8B, 8C and 8D) gene expression was determined via qRT-PCR and normalized for 28S rRNA levels.

[2] = tested on: cartilage explants from OA patient's knee articular cartilage; assay: Treatment of cartilage explants, hypertrophic gene expression by qRT-PCR; details: 10 nM, 24 h
Experimental: 4 mm 2 cartilage explants were taken from non-lesion areas of OA patient's knee articular cartilage (n=5) and randomly assigned to different experimental treatment conditions (4 explants per treatment group). After a 24 h equilibration period the explants were treated with BMP-7 (1 nM) or the 12-mer peptide according to SEQ ID NO: 43 (10 nM) for 24 h. Hypertrophic gene expression was determined via qRT-PCR and normalized for 28S rRNA levels. After treatment with BMP-7 or the 12 mer we observed a downregulation of pro-hypertrophic genes, such as Col10a1 (FIG. 9A) and MMP13 (FIG. 9B).

[3] = tested on: OA articular chondrocytes; assay: OA chondrocyte phenotype gene expression screening of BMP-7 peptides (RT-qPCR); set-up: key to COX-2 / COL2A1 / SOX9: [+] denotes a significantly increased expression of chondrogenic marker genes SOX9 and COL2A1, or a significantly decreased expression of OA phenotypic marker COX-2 in OA articular chondrocytes, in comparison to untreated OA articular chondrocytes; key to IL-6 / ADAMTS5 / COL10A / BAPX1/NKX3.2 / ALP / RUNX2: —: [-] denotes the absence of a significant effect or a significantly decreased expression of chondrogenic marker genes BAPX1/NKX3.2, or a significantly increased expression of OA phenotypic markers IL-6, ADAMTS5, COL10A, ALP and RUNX2 in OA articular chondrocytes, in comparison to untreated OA articular chondrocytes; details: for COL2A1 / COX-2 / SOX9: Table 5; for suppression of the OA chondrocyte phenotype: independent of the tested concentration (1000, 100, 10 and 1 nM were tested); for activity in the assays as employed herein (table 2): peptides with additional amino acid N-terminal of position 100
Experimental: (§1) FIG. 2: The action of 20-mer peptides (10 nM) of SEQ ID NO: 2-17 (peptides with 1 or 2 amino acids intervals (18-19 amino acid overlap)) and a random peptide with a sequence according to SEQ ID NO: 49 on the expression of ADAMTS5 was determined on a validated pool of passage 2 OA human articular chondrocytes (n=18) and compared to full-length recombinant BMP-7 (1 nM). Samples were harvested after 24 hours and analyzed for indicated genes by RT-qPCR (normalized for 28S rRNA expression and relative to control conditions (no peptide exposure)). In the graphs, numbers on the x-axis represent individual peptides according to their SEQ ID NO's, error bars represent mean±SEM, statistical differences were calculated (one-way ANOVA with bonferroni correction) to control condition. *=p<0.05 lower than control condition for ADAMTS5. Random peptide is a peptide according to SEQ ID NO: 49.
as §1, with “3:” for “2:”, “ALP” for “ADAMTS5”, “ALP.” for “ADAMTS5.”
as §1, with “4:” for “2:”, “BAPX1/NKX3.2” for “ADAMTS5”, “BAPX1/NKX3.2.” for “ADAMTS5.”
as §1, with “5:” for “2:”, “COL10A1” for “ADAMTS5”, “COL10A1.” for “ADAMTS5.”
FIG. 6: The action of 20-mer peptides (10 nM) of SEQ ID NO: 2-17 (peptides with 1 or 2 amino acids intervals (18-19 amino acid overlap)) and a random peptide with a sequence according to SEQ ID NO: 49 on the expression of IL-6 was determined on a validated pool of passage 2 OA human articular chondrocytes (n=18) and compared to full-length recombinant BMP-7 (1 nM). […]

[4] = Table 2 (FIG. 2: 10 nM, 24 hours, RT-qPCR, 28S rRNA normalized), vs untreated OA articular chondrocytes
[5] = Table 2 (FIG. 3: 10 nM, 24 hours, RT-qPCR, 28S rRNA normalized), vs untreated OA articular chondrocytes
[6] = Table 2 (FIG. 4: 10 nM, 24 hours, RT-qPCR, 28S rRNA normalized), vs untreated OA articular chondrocytes
[7] = Table 2 (FIG. 5: 10 nM, 24 hours, RT-qPCR, 28S rRNA normalized), vs untreated OA articular chondrocytes
[8] = Table 2 (FIG. 6: 10 nM, 24 hours, RT-qPCR, 28S rRNA normalized), vs untreated OA articular chondrocytes
[9] = Table 2 (FIG. 7: 10 nM, 24 hours, RT-qPCR, 28S rRNA normalized), vs untreated OA articular chondrocytes
[10] = gene expression in OA articular chondrocytes vs untreated
[11] = Table 1, gene expression in OA articular chondrocytes vs untreated

“YSEGESAFPLNS (listed as Homo sapiens) [SEQ ID NO: 43]” was tested, and the “COL10A1 (pro-hypertrophic) gene expression” value [1] was “downregulation”, the “COX-2 (pro-hypertrophic) gene expression” value [1] was “downregulation” and the “Col2a1 (pro-chondrogenic) gene expression” value [1] was “upregulation”. The “RUNX2 (pro-hypertrophic) gene expression” value [1] was “downregulation”, the Col10a1 gene expression [2] was “downregulation” and the MMP13 gene expression [2] was “downregulation”.
For “18 (PKPSSAPTQLNAISVLYFDDSSNVILKKYRNMVVRASGSH; listed as Homo sapiens) [compound 18]”, the ADAMTS5 [3, 4] was “+”, the ALP [3, 5] was “+” and the BAPX1/NKX3.2 [3, 6] was “+”. For the same substance, the COL10A [3, 7] was “+”, the IL-6 [3, 8] was “+” and the RUNX2 [3, 9] was “+”.
For “13 (SVLYFDDSSNVILKKYRNMV; listed as Homo sapiens) [compound 13]”, the ADAMTS5 [3, 4] was “+”, the ALP [3, 5] was “+” and the BAPX1/NKX3.2 [3, 6] was “+”. The COL10A [3, 7] was “+”, the IL-6 [3, 8] was “+” and the RUNX2 [3, 9] was “+”. The COL2A1 [3, 10] was “+”, the COX-2 [3, 10] was “+” and the SOX9 [3, 10] was “+”.
In the case of “TQLNAISVLYFDDSSNVILK (listed as Homo sapiens) [SEQ ID NO: 10]”, the “suppression of the OA chondrocyte phenotype” value (shortened to “suppression”) [3] is reported as “efficiently suppressed the OA chondrocyte phenotype”.
“25 (CCAPTQLNAISVLYFDDSSN; listed as Homo sapiens) [compound 25]” was tested, and the ADAMTS5 [3, 11] was “—”, the ALP [3, 11] was “—” and the BAPX1/NKX3.2 [3, 11] was “—”. The COL10A [3, 11] was “—”, the IL-6 [3, 11] was “—” and the RUNX2 [3, 11] was “—”.
With “6 (PKPSSAPTQLNAISVLYFDD; listed as Homo sapiens) [compound 6]” the ADAMTS5 [3, 4] was “+”, the ALP [3, 5] was “+” and the BAPX1/NKX3.2 [3, 6] was “+”. For the same substance, the COL10A [3, 7] was “+”, the IL-6 [3, 8] was “+” and the RUNX2 [3, 9] was “+”. For the same substance, the COL2A1 [3, 10] was “+”, the COX-2 [3, 10] was “+” and the SOX9 [3, 10] was “+”.
With “SSNVILKKYRNMVVRASGSH (listed as Homo sapiens) [SEQ ID NO: 17]” the “suppression” value [3] was “efficiently suppressed the OA chondrocyte phenotype”.
“NPETVPKPSSAPTQLNAISV (listed as Homo sapiens) [SEQ ID NO: 3]” was tested, and the “activity in the assays as employed herein (table 2)” value (“activity in the assays” below) [3] was “lost its activity”.
With “4 (ETVPKPSSAPTQLNAISVLY; listed as Homo sapiens) [compound 4]” the ADAMTS5 [3, 4] was “—”, the ALP [3, 5] was “—” and the BAPX1/NKX3.2 [3, 6] was “—”. The COL10A [3, 7] was “—”, the IL-6 [3, 8] was “—” and the RUNX2 [3, 9] was “—”.
For “10 (TQLNAISVLYFDDSSNVILK; listed as Homo sapiens) [compound 10]”, the ADAMTS5 [3, 4] was “+”, the ALP [3, 5] was “+” and the BAPX1/NKX3.2 [3, 6] was “+”. For the same substance, the COL10A [3, 7] was “-”, the IL-6 [3, 8] was “+” and the RUNX2 [3, 9] was “+”. For the same substance, the COL2A1 [3, 10] was “+”, the COX-2 [3, 10] was “+” and the SOX9 [3, 10] was “+”.
In the case of “AISVLYFDDSSNVILKKYRN (listed as Homo sapiens) [SEQ ID NO: 12]”, the “suppression” value [3] is reported as “efficiently suppressed the OA chondrocyte phenotype”.
In the case of “15 (FDDSSNVILKKYRNMVVRAS; listed as Homo sapiens) [compound 15]”, the ADAMTS5 [3, 4] is reported as “+”, the ALP [3, 5] is reported as “+” and the BAPX1/NKX3.2 [3, 6] is reported as “+”. For the same substance, the COL10A [3, 7] was “+”, the IL-6 [3, 8] was “+” and the RUNX2 [3, 9] was “—”. For the same substance, the COL2A1 [3, 10] was “+”, the COX-2 [3, 10] was “+” and the SOX9 [3, 10] was “+”.
“8 (SSAPTQLNAISVLYFDDSSN; listed as Homo sapiens) [compound 8]” was tested, and the ADAMTS5 [3, 4] was “+”, the ALP [3, 5] was “+” and the BAPX1/NKX3.2 [3, 6] was “+”. For the same substance, the COL10A [3, 7] was “+”, the IL-6 [3, 8] was “+” and the RUNX2 [3, 9] was “+”. The COL2A1 [3, 10] was “+”, the COX-2 [3, 10] was “+” and the SOX9 [3, 10] was “+”.
In the case of “FINPETVPKPSSAPTQLNAI (listed as Homo sapiens) [SEQ ID NO: 2]”, the “activity in the assays” value [3] is reported as “lost its activity”.
In the case of “LYFDDSSNVILKKYRNMVVR (listed as Homo sapiens) [SEQ ID NO: 14]”, the “suppression” value [3] is reported as “efficiently suppressed the OA chondrocyte phenotype”.
With “VPKPSSAPTQLNAISVLYFD (listed as Homo sapiens) [SEQ ID NO: 5]” the “activity in the assays” value [3] was “lost its activity”.
“5 (VPKPSSAPTQLNAISVLYFD; listed as Homo sapiens) [compound 5]” was tested, and the ADAMTS5 [3, 4] was “—”, the ALP [3, 5] was “—” and the BAPX1/NKX3.2 [3, 6] was “—”. For the same substance, the COL10A [3, 7] was “—”, the IL-6 [3, 8] was “—” and the RUNX2 [3, 9] was “+”.
